The text below walks through data of BindingDB's records for doi:10.1021/jm025502x (2002).

In assay [1] the target is Methionyl-tRNA synthetase (Staphylococcus aureus). The experiment in a line: In vitro inhibitory concentration against Staphylococcus aureus Methionyl-tRNA synthetase.
Assay [2] is described as follows: In vitro inhibitory concentration against Methionyl-tRNA synthetase in a pyrophosphate exchange assay.

The IC50 is the point on the concentration scale where inhibition reaches its midpoint. Low readings indicate greater potency, high ones weaker potency. For `CCc1cc(I)c2c(c1)C(NCCCNc1cc(O)c3ccccc3n1)CCN2` (stereo not drawn) [2-[3-(6-Ethyl-8-iodo-1,2,3,4-tetrahydro-quinolin-4-ylamino)-propylamino]-1H-quinolin-4-one], it took 12 nM to reach half-maximal inhibition in assay [1] (IC50).

For `Oc1cc(NCCCNCc2ccc(Cl)c(Cl)c2)nc2ccccc12` [2-[3-(3,4-Dichloro-benzylamino)-propylamino]-1H-quinolin-4-one], the IC50 in assay [2] was 500 nM.

On to `Oc1cc(NCCCNC2CCNc3c(Br)cc(Br)cc32)nc2ccccc12` (stereo not drawn) [2-[3-(6,8-Dibromo-1,2,3,4-tetrahydro-quinolin-4-ylamino)-propylamino]-1H-quinolin-4-one], for which half-maximal inhibition in assay [2] (IC50) required 1 nM.
